These results are taken from patent US3966715A, “Herbicidal agents” (Bayer Aktiengesellschaft, priority 1966, dated 1976).

SMILES strings stand for the structures.

Type in all cases: in vivo
Test [1] deals with Oats. Kind of test: Pre-emergence test, oats. To be noted: three weeks. How it is done: (§1) Solvent: 5 parts by weight acetone
(§2) 1 part by weight benzyloxypolyglycol ether
(§3) To produce a suitable preparation of the particular active compound, 1 part by weight of such active compound is mixed with the stated amount of solvent, the stated amount of emulsifier is then added and the resulting concentrate is thereafter diluted with water to the desired final concentration.
(§4) Seeds of the test plants are sown in normal soil and, after 24 hours, watered with the preparation of the given active compound. It is expedient to keep constant the amount of water per unit area. The concentration of the particular active compound in the preparation is of no importance, only the amount of active compound applied per unit area being decisive. After three weeks, the degree of damage to the test plants is determined and characterized by the values 0-5, which have the following meaning:
(§5) The procedure of Example 1 is repeated, and the particular active compounds tested, the amounts applied, and the results obtained can be seen from the following Table 1D: […]

Test [2] concerns Wheat. The test is described as follows: Post-emergence test, wheat. Particulars: three weeks. As for the experimental part:
as §1, §2, §3
(§6) Test plants which have a height of about 5--15 cm. are sprayed with the preparation of the given active compound until just dew moist. After three weeks, the degree of damage to the plants is determined and characterized by the values 0-5, which have the following meaning:
(§7) The procedure of Example 2 is repeated, and the particular active compounds tested, and amounts applied, and the results obtained can be seen from the following Table 2E: […]

In test [3] the test system is Wheat. The test is described as follows: Pre-emergence test, wheat. Particulars: three weeks. As for the experimental part: as §1, §2, §3, §4, §5
The subject of test [4] is Echinochloa. Kind of test: Pre-emergence test, Echinochloa. Particulars: 1.25 kg/hectare, three weeks. As for the experimental part:
as §1, §2, §3, §4, §5

The next test concerns Cotton. The test is described as follows: Pre-emergence test, cotton. To be noted: three weeks. How it is done: as §1, §2, §3, §4, §5
The subject of test [5] is Oats. The test is described as follows: Post-emergence test, oats. To be noted: three weeks. As for the experimental part: as §1, §2, §3, §6, §7
Test [6] concerns Echinochloa. Kind of test: Post-emergence test, Echinochloa. To be noted: three weeks. How it is done:
as §1, §2, §3, §6, §7

Another test relates to Stellaria. Kind of test: Post-emergence test, Stellaria. To be noted: three weeks. As for the experimental part: as §1, §2, §3, §6, §7

As to `CCNc1nnc(-c2ccccc2)c(=O)n1N` [Compound 7, 3-ethylamino-4-amino-6-phenyl-1,2,4-triazine-5-one], the “degree of damage, Oats” value in the test with Oats [1] (2.5 kg/hectare) was 4-5.

Consider `CSc1nnc(CC(C)C)c(=O)n1N` [Compound 11, 3-methylthio-4-amino-6-isobutyl-1,2,4-triazine-5-one], for which, in the test with Wheat [2] (2.4 Kg/hectare), the “degree of damage, Wheat” value is listed as 4-5.

For the compound `CN(C)c1nnc(-c2ccccc2)c(=O)n1N` [Compound 16, 3-dimethylamino-4-amino-6-phenyl-1,2,4-triazine-5-one], the “degree of damage, Wheat” value in the test with Wheat [3] (1.25 kg/hectare), in the test on Wheat [3] (2.5 kg/hectare), with Wheat [3] (5 kg/hectare) and in the test with Wheat [2] (1.2 Kg/hectare) was 4-5 in each case. The “degree of damage, Echinochloa” value with Echinochloa [4] is given as 4-5. In the test on Cotton (2.5 kg/hectare), the “degree of damage, Cotton” value was 4-5.

Turning to `CCc1nnc(SC)n(N)c1=O` [Compound 22, 3-methylthio-4-amino-6-ethyl-1,2,4-triazine-5-one], the “degree of damage, Wheat” value in the test on Wheat [3] (5 kg/hectare) was 4-5. For the same compound, the “degree of damage, Oats” value in the test with Oats [5] (1.2 Kg/hectare) and in the test on Oats [5] (2.4 Kg/hectare) was 4-5 throughout.

In the case of `CSc1nnc(CCC(C)C)c(=O)n1N` [Compound 23, 3-methylthio-4-amino-6-isopentyl-1,2,4-triazine-5-one], in the test on Wheat [2] (2.4 Kg/hectare), the “degree of damage, Wheat” value is 4-5.

`CCSc1nnc(C(C)C)c(=O)n1N` [Compound 148, 3-ethylthio-4-amino-6-isopropyl-1,2,4-triazine-5-one]: the “degree of damage, Echinochloa” value in the test on Echinochloa [6] (0.6 Kg/hectare) and in the test on Echinochloa [6] (1.2 Kg/hectare) was 4-5 throughout. The “degree of damage, Stellaria” value in the test with Stellaria (2.4 Kg/hectare) is 4-5. Moreover, the “degree of damage, Oats” value in the test with Oats [1] (1.25 kg/hectare), in the test with Oats [1] (2.5 kg/hectare) and with Oats [1] (5 kg/hectare) was 4-5 each time. Moreover, the “degree of damage, Wheat” value is reported as 3-4 with Wheat [3] (1.25 kg/hectare) and 4-5 in the test with Wheat [2] (2.4 Kg/hectare). Further, the “degree of damage, Cotton” value with Cotton (2.5 kg/hectare) and in the test with Cotton (5 kg/hectare) was 4-5 each time.

In the case of `CCCc1nnc(SC)n(N)c1=O` [Compound 153, 3-methylthio-4-amino-6-n-propyl-1,2,4-triazine-5-one], the “degree of damage, Oats” value in the test with Oats [1] (1.25 kg/hectare), in the test on Oats [1] (2.5 kg/hectare) and in the test with Oats [5] (2.4 Kg/hectare) was 4-5 in each case. The “degree of damage, Cotton” value in the test on Cotton (1.25 kg/hectare) was 4-5.

Take `C#CCSc1nnc(C(C)C)c(=O)n1N` [Compound 158, 3-propargylthio-4-amino-6-isopropyl-1,2,4-triazine-5-one]: the “degree of damage, Stellaria” value in the test with Stellaria (1.2 Kg/hectare) is reported as 4-5.

Consider `CNc1nnc(C(C)(C)C)c(=O)n1N` [Compound 175, 3-methylamino-4-amino-6-tert.-butyl-1,2,4-triazine-5-one], for which the “degree of damage, Echinochloa” value in the test on Echinochloa [6] (0.6 Kg/hectare) and with Echinochloa [6] (1.2 Kg/hectare) was 4-5 throughout. Moreover, the “degree of damage, Oats” value with Oats [5] (0.6 Kg/hectare) and with Oats [5] (1.2 Kg/hectare) was 4-5 throughout. Moreover, the “degree of damage, Wheat” value with Wheat [2] (2.4 Kg/hectare) is 4-5.

For `CCNc1nnc(C(C)(C)C)c(=O)n1N` [Compound 176, 3-ethylamino-4-amino-6-tert.-butyl-1,2,4-triazine-5-one], in the test with Echinochloa [6] (2.4 Kg/hectare), the “degree of damage, Echinochloa” value was 4-5. The “degree of damage, Stellaria” value with Stellaria (0.6 Kg/hectare) is on record as 4-5.

Turning to `CCCNc1nnc(C(C)C)c(=O)n1N` [Compound 178, 3-n-propylamino-4-amino-6-isopropyl-1,2,4-triazine-5-one], the “degree of damage, Wheat” value in the test on Wheat [3] (5 kg/hectare) was 2-3.

As for `CCCCNc1nnc(C2CCCCC2)c(=O)n1N` [Compound 182, 3-n-butylamino-4-amino-6-cyclohexyl-1,2,4-triazine-5-one], the “degree of damage, Echinochloa” value in the test on Echinochloa [6] (10 Kg/hectare) is 4-5. In addition, in the test with Oats [1] (40 Kg/hectare), the “degree of damage, Oats” value was 4-5. The “degree of damage, Wheat” value with Wheat [3] (40 Kg/hectare) is on record as 4-5.

Turning to `CSc1nnc(C(C)(C)C)c(=O)n1NC(O)C(Cl)(Cl)Cl` (stereo not drawn) [Compound 192, 3-methylthio-4-(β-trichloro-α-hydroxy-ethyl)-amino-6-tert.-butyl-1,2,4-triazine-5-one], the “degree of damage, Oats” value in the test on Oats [1] (1.25 kg/hectare), in the test with Oats [1] (2.5 kg/hectare) and in the test with Oats [5] (2.4 Kg/hectare) was 4-5 throughout. The “degree of damage, Cotton” value in the test on Cotton (1.25 kg/hectare) and in the test on Cotton (2.5 kg/hectare) was 4-5 throughout.

As to `CSc1nnc(C(C)C)c(=O)n1N=CC1CCCCC1` [Compound 197, 3-methylthio-4-(hexahydrobenzylidene-amino)-6-isopropyl-1,2,4-triazine-5-one], the “degree of damage, Echinochloa” value in the test on Echinochloa [6] (1.2 Kg/hectare) is listed as 4-5. Further, the “degree of damage, Wheat” value in the test with Wheat [3] (1.25 kg/hectare) and in the test on Wheat [2] (1.2 Kg/hectare) was 4-5 in each case.

`CSc1nnc(C(C)C)c(=O)n1N=Cc1ccccc1` [Compound 198, 3-methylthio-4-(benzylidene-amino)-6-isopropyl-1,2,4-trizaine-5-one]: the “degree of damage, Stellaria” value in the test on Stellaria (0.6 Kg/hectare) was 4-5. The “degree of damage, Wheat” value in the test with Wheat [3] (1.25 kg/hectare) is 4-5. Further, the “degree of damage, Oats” value is listed as 3-4 in the test on Oats [5] (0.6 Kg/hectare) and 4-5 with Oats [5] (2.4 Kg/hectare).

As to `CSc1nnc(C(C)C)c(=O)n1N=Cc1ccc(Cl)cc1` [Compound 201, 3-methylthio-4-(4'-chloro-benzylidene-amino)-6-isopropyl-1,2,4-triazine-5-one], the “degree of damage, Echinochloa” value in the test on Echinochloa [6] (1.2 Kg/hectare) is 4-5. For the same compound, in the test on Stellaria (1.2 Kg/hectare), the “degree of damage, Stellaria” value is 4-5. In addition, in the test on Wheat [3] (1.25 kg/hectare), the “degree of damage, Wheat” value is 4-5.

As for `CSc1nnc(C(C)C)c(=O)n1N=Cc1ccco1` [Compound 203, 3-methylthio-4-(furfur-2'-ylidene-amino)-6-isopropyl-1,2,4-triazine-5-one], in the test with Stellaria (2.4 Kg/hectare), the “degree of damage, Stellaria” value was 4-5. The “degree of damage, Wheat” value in the test with Wheat [2] (1.2 Kg/hectare) is 4-5. Besides, the “degree of damage, Cotton” value with Cotton (1.25 kg/hectare) was 4-5.

For `CSc1nnc(C(C)C)c(=O)n1N=C1CCCCC1` [Compound 204, 3-methylthio-4-(cyclohexylidene-amino)-6-isopropyl-1,2,4-triazine-5-one], in the test with Stellaria (0.6 Kg/hectare), the “degree of damage, Stellaria” value is recorded as 4-5. The “degree of damage, Wheat” value with Wheat [3] (1.25 kg/hectare) was 4-5.

Consider `CSc1nnc(C(C)C)c(=O)n1N=Cc1ccccc1C` [Compound 206, 3-methylthio-4-(2'-methyl-benzylidene-amino)-6-isopropyl-1,2,4-triazine-5-one], for which the “degree of damage, Stellaria” value in the test on Stellaria (0.6 Kg/hectare) is recorded as 4-5. For the same compound, the “degree of damage, Oats” value with Oats [5] (2.4 Kg/hectare) was 4-5. For the same compound, the “degree of damage, Wheat” value in the test on Wheat [2] (1.2 Kg/hectare) was 3-4. In the test with Cotton (1.25 kg/hectare), the “degree of damage, Cotton” value is 4-5.

Take `CSc1nnc(C(C)C)c(=O)n1N=Cc1ccc([N+](=O)[O-])cc1` [Compound 210, 3-methylthio-4-(4'-nitro-benzylidene-amino)-6-isopropyl-1,2,4-triazine-5-one]: the “degree of damage, Oats” value in the test on Oats [1] (2.5 kg/hectare) and in the test with Oats [1] (5 kg/hectare) was 4-5 each time. Besides, the “degree of damage, Cotton” value in the test on Cotton (2.5 kg/hectare) and with Cotton (5 kg/hectare) was 4-5 throughout.

Consider `CSc1nnc(C(C)(C)C)c(=O)n1N=CC(C)C` [Compound 215, 3-methylthio-4-(isobutylidene-amino)-6-tert.-butyl-1,2,4-triazine-5-one], for which the “degree of damage, Wheat” value in the test on Wheat [2] (1.2 Kg/hectare) is reported as 4-5.

In the case of `CCC=Nn1c(SC)nnc(C(C)C)c1=O` [Compound 216, 3-methylthio-4-(n-propylidene-amino)-6-isopropyl-1,2,4-triazine-5-one], the “degree of damage, Wheat” value in the test on Wheat [3] (1.25 kg/hectare) is given as 4-5.

`CCCC=Nn1c(SC)nnc(C(C)C)c1=O` [Compound 217, 3-methylthio-4-(n-butylidene-amino)-6-isopropyl-1,2,4-triazine-5-one]: in the test on Wheat [3] (1.25 kg/hectare), the “degree of damage, Wheat” value is reported as 4-5.

Turning to `CSc1nnc(C(C)(C)C)c(=O)n1N=C(C)C` [Compound 220, 3-methylthio-4-(prop-2'-ylidene-amino)-6-tert.-butyl-1,2,4-triazine-5-one], the “degree of damage, Wheat” value in the test with Wheat [3] (1.25 kg/hectare) is listed as 4-5.

`CSc1nnc(C2CCCCC2)c(=O)n1N=C(C)C` [Compound 224, 3-methylthio-4-(prop-2'-ylidene-amino)-6-cyclohexyl-1,2,4-triazine-5-one]: the “degree of damage, Wheat” value in the test on Wheat [3] (1.25 kg/hectare), in the test on Wheat [2] (1.2 Kg/hectare) and in the test with Wheat [2] (2.4 Kg/hectare) was 4-5 throughout. In the test with Oats [5] (1.2 Kg/hectare), the “degree of damage, Oats” value is recorded as 4-5.

Turning to `CSc1nnc(C2CCCCC2)c(=O)n1N=CC1CCCCC1` [Compound 228, 3-methylthio-4-(hexahydrobenzylidene-amino)-6-cyclohexyl-1,2,4-triazine-5-one], the “degree of damage, Echinochloa” value in the test on Echinochloa [6] (0.6 Kg/hectare) was 4-5. Besides, the “degree of damage, Oats” value with Oats [1] (5 kg/hectare) and in the test with Oats [5] (1.2 Kg/hectare) was 4-5 throughout. The “degree of damage, Wheat” value in the test on Wheat [3] (5 kg/hectare), in the test with Wheat [2] (0.6 Kg/hectare) and in the test on Wheat [2] (1.2 Kg/hectare) was 4-5 in each case.

On to `CNc1nnc(C(C)(C)C)c(=O)n1N=C(C)C` [Compound 232, 3-methylamino-4-(prop-2'-ylidene-amino)-6-tert.-butyl-1,2,4-triazine-5-one], for which the “degree of damage, Oats” value in the test with Oats [1] (1.25 kg/hectare) is 4-5. In the test with Wheat [2] (1.2 Kg/hectare), the “degree of damage, Wheat” value is listed as 4-5.

Regarding `CNn1c(OC)nnc(-c2ccccc2)c1=O` [Compound 234, 3-methoxy-4-methylamino-6-phenyl-1,2,4-triazine-5-one], in the test with Oats [1] (5 kg/hectare), the “degree of damage, Oats” value is 4-5.
